The values that follow come from patent US20160273042A1, “GENETIC MARKERS OF ANTIPSYCHOTIC RESPONSE” (SUREGENE, LLC, priority 2013, published 2016).

Data set [1] relates to patients of the CATIE study (schizophrenia). Nature of the data set: CATIE trial: change in PANSS score (delta PANSS, LOCF) for subjects stratified by GARP genetic signature status. Particulars: for Delta PANSS, Mean, GARP-1 negative: GARP-1 negative subjects; for Delta PANSS, Mean, GARP-1 negative / Delta PANSS, Mean, GARP-2 negative / Delta PANSS, Mean, GARP-2 positive / Delta PANSS, Mean, GARP-3 negative / Delta PANSS, Mean, GARP-3 positive / Delta PANSS, Mean, GARP-4 negative / Delta PANSS, Mean, GARP-4 positive / Delta PANSS, Mean, GARP-1 positive: LOCF, CATIE Phases 1-2; for response in GARP-1 positive subjects, in words: compared with GARP-1 negative subjects or with other drugs; for Relative efficacy (positive), GARP-1: GARP-1 positive versus negative subjects; for Relative efficacy (positive), GARP-1 / Relative efficacy (positive), GARP-2 / Relative efficacy (positive), GARP-3 / Relative efficacy (positive), GARP-4: t-test; for Delta PANSS, Mean, GARP-2 negative: GARP-2 negative subjects; for response in GARP-2 positive subjects, in words: compared with GARP-2 negative subjects or with other drugs; for response in GARP-2 positive subjects, in words / Delta PANSS, Mean, GARP-2 positive: GARP-2 positive subjects; for Relative efficacy (positive), GARP-2: GARP-2 positive versus negative subjects; for Delta PANSS, Mean, GARP-3 negative: GARP-3 negative subjects; for response in GARP-3 positive subjects, in words: compared with GARP-3 negative subjects or with other drugs; for response in GARP-3 positive subjects, in words / Delta PANSS, Mean, GARP-3 positive: GARP-3 positive subjects; for Relative efficacy (positive), GARP-3: GARP-3 positive versus negative subjects; for Delta PANSS, Mean, GARP-4 negative: GARP-4 negative subjects; for Delta PANSS, Mean, GARP-4 positive: GARP-4 positive subjects; for Relative efficacy (positive), GARP-4: GARP-4 positive versus negative subjects; for response in GARP-1 positive subjects, in words / Delta PANSS, Mean, GARP-1 positive: GARP-1 positive subjects. In kind it is in vivo, human. Here is the method:
The CATIE study, a large federally funded clinical trial designed to assess the efficacy of antipsychotics in a real world setting, is a valuable resource for determining the role of genes in baseline psychopathology and drug response (Lieberman et al., 2005; Stroup et al., 2003). […] Additionally, whole genome SNP genotyping was performed for roughly half of the trial participants (Sullivan et al., 2008).
Genotype and phenotype data for the CATIE trial were recently made available to qualified researchers through the NIMH Center for Collaborative Genetic Studies on Mental Disorders. The sample consisted of a total of 738 patients. Further details on the patient population are described in the study by Sullivan and coworkers (Sullivan et al., 2008). The CATIE SNP genotype data evaluated included a total of 492,900 SNPs located throughout the genome.
The design of the CATIE study has been described in detail by others (Lieberman et al., 2005; Stroup et al., 2003). […] Subjects that failed Phase 1 treatment with the typical antipsychotic perphenazine were treated differently than those subjects that failed phase I treatment with an atypical antipsychotic. Instead of entering into Phase II of the trial, subjects who switched from perphenazine entered Phase IB. […] Subjects who failed Phase IB then entered Phase II.
A total of 738 subjects consented to provide DNA for genetic study. […] Only retrospective genetic analyses, judged to be exempt from human studies requirements by an IRB, were conducted in the current study. For the genetic analyses presented herein, the inventors combined and evaluated drug response data for Phase IA, Phase IB, and Phase II of the CATIE study. All tested patients were studied using well established clinical endpoints comparing baseline, intermediate, and last observation carried forward (LOCF) for the PANSS scores using CATIE data. LOCF analysis is a commonly used clinical endpoint for clinical trials for neuropsychiatric drugs, with particular changes in PANSS scores being used to indicate clinically significant response (Leucht et al., 2009).
Using the clinical data from the CATIE trial, the inventors derived several different metrics used for quantifying response in clinical trials of antipsychotic medications. The most commonly used psychometric instrument is the Positive and Negative Syndrome Scale (PANSS), a 30-item semi-quantitative instrument scored by clinical professionals (Kay et al., 1987). The greater the decrease in PANSS score, the better the clinical response. The most direct measure of clinical response is absolute change in PANSS score (delta PANSS). In addition to absolute change, the improvement is often reported as a percentage change from baseline PANSS score.
As mentioned previously, the mean change in PANSS at LOCF provides an important measure of efficacy in patients undergoing antipsychotic treatments. Indeed, many pivotal trials in the psychosis field used absolute and/or percentage change in PANSS Score as the primary endpoint (Leucht et al., 2009). […] Therefore, the inventors determined the impact of segmentation by GARP genetic signature status on the quantitative measure of clinical improvement—delta PANSS (for LOCF).
Each table lists the six drugs used during the first two phases of the CATIE trial.

In data set [2] the test system is psychotic symptoms (PANSS). Particulars: difference in mean response drug minus placebo arm, divided by standard deviation; negative = greater reduction in PANSS; cited from earlier work.
Data set [3] has as its system psychotic symptoms (PANSS). Particulars: versus first generation antipsychotics; cited from earlier work.
For data set [4] the following is noted: hierarchy high / medium / low risk; cited from earlier work.

Values joined by “and” are separate entries in the source; they are usually repeats but may differ in a detail not shown here. Equal entries are not always repeated. “Also recorded” adds a separate entry of the source.

For the molecule `OCCOCCN1CCN(C2=Nc3ccccc3Sc3ccccc32)CC1` [Quetiapine, quetiapine], in data set [1], the “Delta PANSS, Mean, GARP-1 negative” value is −0.53; the “response in GARP-1 positive subjects, in words” value is recorded as “Neither quetiapine nor perphenazine demonstrated efficacy”; the “Relative efficacy (positive), GARP-1” value is reported as “Neutral”; the “Delta PANSS, Mean, GARP-2 negative” value is recorded as −2.86. Also, in data set [1], the “response in GARP-2 positive subjects, in words” value was “decreased response; also recorded: responded worse; also recorded: lack of efficacy”; the “Delta PANSS, Mean, GARP-2 positive” value is 1.51 and 1.5; the “Relative efficacy (positive), GARP-2” value is recorded as “Decreased”; the “Delta PANSS, Mean, GARP-3 negative” value is recorded as −0.1. Besides, in data set [1], the “response in GARP-3 positive subjects, in words” value is recorded as “enhanced response; also recorded: responded significantly better”; the “Delta PANSS, Mean, GARP-3 positive” value is recorded as −4.3; the “Relative efficacy (positive), GARP-3” value was “Neutral”; the “Delta PANSS, Mean, GARP-4 negative” value is −0.7. In addition, in data set [1], the “Delta PANSS, Mean, GARP-4 positive” value is on record as −1.6 and the “Relative efficacy (positive), GARP-4” value is reported as “Neutral”. In addition, in data set [2], the “Effect Size vs. Placebo” value is listed as −0.42. The “Effect Size vs. FGA” value in data set [3] is recorded as 0.01. The “risk for weight gain, classification” value in data set [4] is “medium risk”.

In the case of `Cc1cc2c(s1)Nc1ccccc1N=C2N1CCN(C)CC1` [Olanzapine, olanzapine], in data set [1], the “Delta PANSS, Mean, GARP-1 negative” value is given as −7.48; the “Relative efficacy (positive), GARP-1” value is “Enhanced”; the “Delta PANSS, Mean, GARP-2 negative” value is −10.73; the “Relative efficacy (positive), GARP-2” value is “Neutral”. Also, in data set [1], the “Delta PANSS, Mean, GARP-3 negative” value is recorded as −9.5; the “Delta PANSS, Mean, GARP-3 positive” value is reported as −6.3; the “Relative efficacy (positive), GARP-3” value was “Neutral”; the “Delta PANSS, Mean, GARP-4 negative” value was −9.0. For the same molecule, in data set [1], the “Delta PANSS, Mean, GARP-4 positive” value is −9.3 and the “Relative efficacy (positive), GARP-4” value is listed as “Neutral”. In addition, the “risk for weight gain, classification” value in data set [4] is recorded as “high risk”.

Regarding `O=C1Cc2cc(CCN3CCN(c4nsc5ccccc45)CC3)c(Cl)cc2N1` [Ziprasidone, ziprasidone], in data set [1], the “Delta PANSS, Mean, GARP-1 negative” value is −2.94; the “response in GARP-1 positive subjects, in words” value was “worsening of symptoms”; the “Delta PANSS, Mean, GARP-1 positive” value is 12.72 and 12.7; the “Relative efficacy (positive), GARP-1” value was “Decreased”. Besides, in data set [1], the “Delta PANSS, Mean, GARP-2 negative” value is given as 3.51; the “response in GARP-2 positive subjects, in words” value is recorded as “enhanced response”; the “Delta PANSS, Mean, GARP-2 positive” value was −2.8; the “Relative efficacy (positive), GARP-2” value is given as “Enhanced”. Also, in data set [1], the “Delta PANSS, Mean, GARP-3 negative” value is recorded as −0.1; the “Delta PANSS, Mean, GARP-3 positive” value is −4.5; the “Relative efficacy (positive), GARP-3” value is “Neutral”; the “Delta PANSS, Mean, GARP-4 negative” value was 0.4. In addition, in data set [1], the “Delta PANSS, Mean, GARP-4 positive” value was −4.3 and the “Relative efficacy (positive), GARP-4” value was “Neutral”. In addition, in data set [1] (listed as ziprasidone), the “response in GARP-1 positive subjects, in words” value is “decreased response; also recorded: responded particularly poorly; also recorded: NON-response”. Further, in data set [2], the “Effect Size vs. Placebo” value is given as −0.48. Also, the “Effect Size vs. FGA” value in data set [3] is listed as −0.04. Also, the “risk for weight gain, classification” value in data set [4] is “low risk”.

For the molecule `CN1CCN(C2=Nc3cc(Cl)ccc3Nc3ccccc32)CC1` [Clozapine, clozapine], in data set [1], the “Delta PANSS, Mean, GARP-1 negative” value was −15.32; the “Delta PANSS, Mean, GARP-1 positive” value was −14.0; the “Delta PANSS, Mean, GARP-2 negative” value was −24.33; the “Delta PANSS, Mean, GARP-3 negative” value is reported as −13.6. Further, in data set [1], the “Delta PANSS, Mean, GARP-3 positive” value is on record as −31; the “Delta PANSS, Mean, GARP-4 negative” value is given as −13.4; the “Delta PANSS, Mean, GARP-4 positive” value is on record as −26.3. In addition, the “worse response of GARP-2 positive than GARP-2 negative patients” value in data set [1] (difference in delta PANSS, GARP-2 positive vs negative) is reported as approximately 20 points.

For the molecule `O=C1CCc2ccc(OCCCCN3CCN(c4cccc(Cl)c4Cl)CC3)cc2N1` [aripiprazole], the “response in GARP-1 positive subjects, in words” value in data set [1] is on record as “NON-response”. Further, the “risk for weight gain, classification” value in data set [4] was “low risk”.

For the molecule `OCCN1CCN(CCCN2c3ccccc3Sc3ccc(Cl)cc32)CC1` [Perphenazine, perphenazine], in data set [1], the “Delta PANSS, Mean, GARP-1 negative” value is reported as −6.40; the “response in GARP-1 positive subjects, in words” value was “decreased response; also recorded: Neither quetiapine nor perphenazine demonstrated efficacy”; the “Delta PANSS, Mean, GARP-1 positive” value is 2.84 and 2.8; the “Relative efficacy (positive), GARP-1” value is listed as “Decreased”. Besides, in data set [1], the “Delta PANSS, Mean, GARP-2 negative” value was determined as 0.52; the “response in GARP-2 positive subjects, in words” value is “enhanced response; also recorded: responded better; also recorded: superior efficacy”; the “Relative efficacy (positive), GARP-2” value is listed as “Enhanced”; the “Delta PANSS, Mean, GARP-3 negative” value is on record as −5.5. In data set [1], the “Delta PANSS, Mean, GARP-3 positive” value is 0.7; the “Relative efficacy (positive), GARP-3” value is listed as “Neutral”; the “Delta PANSS, Mean, GARP-4 negative” value is recorded as −4.7; the “Delta PANSS, Mean, GARP-4 positive” value was −3.0. The “Relative efficacy (positive), GARP-4” value in data set [1] is on record as “Neutral”.

In the case of `Cc1nc2n(c(=O)c1CCN1CCC(c3noc4cc(F)ccc34)CC1)CCCC2` [Risperidone, risperidone], in data set [1], the “Delta PANSS, Mean, GARP-1 negative” value is reported as −4.55; the “response in GARP-1 positive subjects, in words” value is recorded as “enhanced response; also recorded: significant efficacy”; the “Relative efficacy (positive), GARP-1” value is “Enhanced”; the “Delta PANSS, Mean, GARP-2 negative” value is reported as −4.65. In data set [1], the “response in GARP-2 positive subjects, in words” value was “superior efficacy”; the “Relative efficacy (positive), GARP-2” value is on record as “Neutral”; the “Delta PANSS, Mean, GARP-3 negative” value is on record as −6.9; the “response in GARP-3 positive subjects, in words” value is on record as “decreased response; also recorded: responded poorly”. In addition, in data set [1], the “Delta PANSS, Mean, GARP-3 positive” value is recorded as 2.1; the “Relative efficacy (positive), GARP-3” value is listed as “Decreased”; the “Delta PANSS, Mean, GARP-4 negative” value was −5.4; the “Delta PANSS, Mean, GARP-4 positive” value is on record as −6.7. Besides, the “Relative efficacy (positive), GARP-4” value in data set [1] is listed as “Neutral”. In addition, in data set [2], the “Effect Size vs. Placebo” value is −0.59. Also, the “Effect Size vs. FGA” value in data set [3] is −0.25. The “risk for weight gain, classification” value in data set [4] is on record as “medium risk”.
